Laboratory results published in patent US8617614B2, “Sustained release preparation for tissue regeneration therapy” (Ono Pharmaceutical Co., Ltd., priority 2006, dated 2013).

Legend:
Type in all cases: in vivo
[1] = system: hippocampal CA1 region nerve cells; experiment: Number of nerve cells in hippocampal CA1 region, rat 4-VO model (Nissl staining)
[2] = system: STZ induced diabetes model; experiment: Time course of blood sugar level, STZ induced diabetes model; conditions: STZ rat, Test Group 3: 3 mg/kg oral twice daily
Description: Female Sprague-Dawley rats (8- to 11-week-old; Japan SLC, Inc.) were intraperitoneally administered 40 mg/kg of a citrate buffer (pH, approx. 4.5) of streptozotocin (STZ; Sigma). A normal control group was intraperitoneally given only the citrate buffer. Two weeks after STZ administration, the blood sugar, nerve conduction velocity and body weight were measured, the animals were divided into groups uniform for these properties, and administration of the test substance was begun. To determine the change over time in blood sugar, the blood sugar level was measured 4, 8 and 12 weeks following the start of test solution administration (on the day prior to nerve conduction velocity measurement). The blood sugar level of blood drawn from the caudal vein was measured using a blood sugar analyzer (Antisense II; Bayer-Sankyo). Following measurement of the blood sugar 12 weeks later, the animals were deprived of food for at least 16 hours and the fasting blood sugar and insulin were measured. In addition, a 2 g glucose tolerance test was carried out in which blood was similarly drawn 30, 60 and 120 minutes after sugar loading, and the blood sugar and insulin values were measured. In Groups 2 to 5, the feeding blood sugar level two weeks after STZ administration was measured. Of rats with blood sugar levels above 300 mg/dL, severely diabetic rats were excluded therefrom, and the remaining rats were used as diabetes model animals. Groups were formed in such a way as to make the respective groups uniform with respect to nerve conduction velocity, blood sugar level and body weight. Administration was carried out in accordance with the intended route of administration for clinical use. In Test Group 3, forced administration was carried out orally using a disposable syringe barrel and a rat stomach probe. In Test Group 4, intramuscular administration was carried out uniformly at four places within the muscle along the sciatic nerve in the femoral portion of the left leg. For subcutaneous administration in test Group 5, the animals were ether anesthetized, and subcutaneous administration was carried out in the dorsal region using a disposable syringe barrel and a disposable 25 G syringe needle. The volume of solution administered was computed based on the latest body weight. The amount of microspheres administered indicates the amount of the present drug included.

[3] = system: STZ induced diabetes model; experiment: Oral glucose tolerance test (OGTT), insulin, STZ induced diabetes model; conditions: OGTT 2 g/kg, week 13; STZ rat; Test Group 3: 3 mg/kg oral twice daily
Description: Female Sprague-Dawley rats (8- to 11-week-old; Japan SLC, Inc.) were intraperitoneally administered 40 mg/kg of a citrate buffer (pH, approx. 4.5) of streptozotocin (STZ; Sigma). A normal control group was intraperitoneally given only the citrate buffer. Administration was carried out in accordance with the intended route of administration for clinical use. In Test Group 3, forced administration was carried out orally using a disposable syringe barrel and a rat stomach probe. In Test Group 4, intramuscular administration was carried out uniformly at four places within the muscle along the sciatic nerve in the femoral portion of the left leg. For subcutaneous administration in test Group 5, the animals were ether anesthetized, and subcutaneous administration was carried out in the dorsal region using a disposable syringe barrel and a disposable 25 G syringe needle. The volume of solution administered was computed based on the latest body weight. Thirteen weeks after the start of test substance administration, an oral glucose tolerance test (OGTT) was conducted on rats fasted for 18 hours. After drawing blood from the caudal vein of the fasting rats, 2 g/kg of glucose was orally force-fed. About 500 μL of blood was similarly collected from the caudal vein 30, 60 and 120 minutes after glucose administration, of which about 400 μL was EDTA-2Na treated, then centrifuged (3,000 rpm, 4° C., 10 min) with a centrifuge. The plasma was thereby collected, and the blood sugar was measured using a 7170 Clinical Analyzer (Hitachi, Ltd.). The remaining approximately 100 μL of blood was centrifuged (3,000 rpm, 4° C., 10 min) with a centrifuge, the serum was collected, and the insulin level was measured (ELISA method; Levis Insulin Kit (Shibayagi Co., Ltd)).

**Q.** Which results are given for `O=C(O)COc1cccc2c1CCC=C2CCO/N=C(\c1ccccc1)c1cccnc1` [present drug, ({5-[2-({[(1E)-phenyl(pyridin-3-yl)methylene]amino}oxy)ethyl]-7,8-dihydronaphthalen-1-yl}oxy)acetic acid]?
**A.** number of hippocampal CA1 pyramidal nerve cells relative to the group given the medium (Test Group 3) ([1]; rat 4-VO Test 1, day 42, s.c. twice daily, present drug 10, ornoprostil 0.1, PGE1•αCD 1.5 and 3 mg/kg): significant increase; decrease in the number of hippocampal CA1 region nerve cells relative to Test Group 1 ([1]; rat 4-VO Test 2, Test Group 2: 10 mg/kg oral twice daily, day 8): significant suppression; number of hippocampal CA1 region nerve cells ([1]; rat 4-VO Test 2, Test Group 7: medium up to day 8, 10 mg/kg oral for 34 days from day 9): increasing trend; number of hippocampal CA1 region nerve cells relative to Test Group 4 ([1]; rat 4-VO Test 2, oral 1 mg/kg (Test Group 3)): significant increases; number of hippocampal CA1 region nerve cells relative to Test Group 4 ([1]; rat 4-VO Test 2, oral 10 mg/kg (Test Group 6)): significant increases; Blood sugar (mg/dL) 0 weeks [2]: 567 ± 73 mg/dL; Blood sugar (mg/dL) 4 weeks [2]: 555 ± 39 mg/dL; Blood sugar (mg/dL) 8 weeks [2]: 600 ± 64 mg/dL; Blood sugar (mg/dL) 12 weeks [2]: 510 ± 84 mg/dL; blood sugar relative to Test Group 2 ([2]; at any of the times): A significant decline in blood sugar was not observed; Insulin (ng/mL) After 30 minutes [3]: 2.197 ± 2.062 ng/mL; Insulin (ng/mL) After 60 minutes [3]: 1.808 ± 1.521 ng/mL; Insulin (ng/mL) After 120 minutes [3]: 2.130 ± 2.087 ng/mL; Insulin (ng/mL) Before glucose loading [3]: 2.138 ± 1.722 ng/mL
